Source: publication PMC4254627 (Bioorganic & medicinal chemistry letters, 2014)
“Also recorded” adds a separate entry of the source.

Legend:
[1] = Solubility / precipitation behaviour in pH 7.4 buffer; assay type: physicochemical
[2] = Stability; assay type: in vitro ADME, human; settings: 50% HP vs pH 7.4 buffer

| SMILES | solubility in pH 7.4 buffer [1] | reduction of half-life in HP compared to pH 7.4 PBS buffer [2] |
| --- | --- | --- |
| CCC(C)[C@H](N)C(=O)O[C@@H]1CC[C@@]2(O)[C@H]3Cc4ccc(O)c5c4[C@@]2(CCN3CC2CC2)[C@H]1O5 (stereo partly drawn) [Prodrug 6d] | highly insoluble; also recorded: precipitate |  |
| CC(C)[C@H](N)C(=O)O[C@@H]1CC[C@@]2(O)[C@H]3Cc4ccc(O)c5c4[C@@]2(CCN3CC2CC2)[C@H]1O5 [Prodrug 6b] | precipitate |  |
| NCCC(=O)O[C@@H]1CC[C@@]2(O)[C@H]3Cc4ccc(O)c5c4[C@@]2(CCN3CC2CC2)[C@H]1O5 [Prodrug 6e] |  | approximately 5.4 fold |
